Publication PMC9823097, “Dysregulation of PRMT5 in chronic lymphocytic leukemia promotes progression with high risk of Richter’s transformation” (Nature Communications, 2023)
Values joined by “and” are separate entries in the source; they are usually repeats but may differ in a detail not shown here. Equal values may be shown once. “Also recorded” adds a separate entry of the source.

How the values were obtained:
[1] = Pharmacokinetics in mice (clearance, oral bioavailability, AUC); format: in vivo
primary CLL cells = assay: Proliferation of primary IGHV-U CLL cells, MTS assay, 72 h, with and without CpG; format: cell-based, human; details: for Normalized A490: +CpG, individual patients' primary CLL cells, normalized to -CpG dose 0
Source text: Our research complies with all relevant ethical regulations. De-identified human CLL cells were isolated as previously described after obtaining informed consent on protocols approved by The Ohio State University Cancer Institutional Review Board in accordance with the Declaration of Helsinki. All patients examined had CLL as defined by the 2008 IWCLL criteria. Sex and age of the patients who provided samples was not available. Human peripheral blood mononuclear cells (PBMC) were isolated from CLL patients using Ficoll density gradient centrifugation. (Ficoll-Paque Plus; Amersham Biosciences Inc, Piscataway, NJ). Enriched B-cell fractions were prepared using the RosetteSep™ B-cell kit (STEMCELL Technologies, Vancouver, Canada) according to the manufacturer’s instructions. Isolated cells were incubated in RPMI 1640 media (Invitrogen, Grand Island, NY) supplemented with 10% heat-inactivated fetal bovine serum (Sigma-Aldrich, St. Louis, MO), 2 mM L-glutamine (Invitrogen), and 100 U/mL penicillin/100 μg/mL streptomycin (Sigma-Aldrich) at 37 °C in an atmosphere of 5% CO2. The purity of enriched populations of CLL was routinely checked using CD19-PE (BD Pharmingen, Billerica, MA) staining by flow cytometry.
(§1) Cell proliferation was assessed via MTS (3-[4,5-dimethylthiazol-2-yl]-5-[3-carboxymethoxyphenyl]-2-[4-sulfophenyl]-2H-tetrazolium) assay (Sigma), using the tetrazolium dye […]. Cell apoptosis was evaluated by Annexin V-FITC or PE and propidium iodide (PI) staining using FC500 cytometer (Beckman-Coulter, Indianapolis, IN) following the manufacturer’s procedure (BD Pharmingen, Billerica, MA)[55]. For cell cycle analysis, cells were fixed with cold ethanol overnight and then stained before analysis with 30 μg/mL propidium iodide (Invitrogen) and 200 μg/mL RNase (Sigma-Aldrich) in 0.1 % v/v Triton X-100 (Sigma-Aldrich). Cell cycle data analysis was performed using ModFit LT software (Verity Software House, Topsham, ME).

[2] = Pharmacokinetic study, oral gavage to CD-1 mice, blood analyzed by LC-MS/MS; format: in vivo; details: for peak plasma level: WT CD-1 mice; for DNAUC / blood concentration at time point 0.25 / blood concentration at time point 0.5 / blood concentration at time point 1 h / blood concentration at time point 2 h / blood concentration at time point 4 h / blood concentration at time point 8 h / blood concentration at time point 12 h / blood concentration at time point 24 h / AUC / AUC(0-t) / Cmax / MRT / Tmax / half-life: 1d-single dose, male CD-1 mice, fed, blood analysis; for DNAUC / AUC / AUC(0-t) / Cmax / MRT / Tmax / half-life: 0.5%CMC+0.5%Tween80; for AUC / AUC(0-t) / Cmax / MRT / Tmax / half-life: mouse, whole blood, po
Description: For in vitro assays, the compound was stored in a 10 mM solution in DMSO. […] […] Blood was collected at various time points after dosing into EDTA-K2 tubes, placed on ice, and stored at −80 °C prior to analysis by LC-MS/MS. For biochemical potency and selectivity, PRT382 was solubilized in 100% DMSO and diluted serially threefold. For assessment of selectivity, enzyme activity against a panel of 37 methyltransferases was evaluated using 3H-SAM as a radioligand probe with filtration binding. PRT382 was tested in duplicate at a final concentration of 10 µM. The percent of enzyme activity relative to DMSO control condition was determined for each enzyme.

[3] = Pharmacokinetics in rats (clearance, oral bioavailability); format: in vivo
U-2932 = assay: Anti-proliferative activity, MTS assay, U-2932; format: cell-based; details: Homo sapiens, U2932, DLBCL, read-out: PRT382 IC50 (anti-proliferative)
Description: as §1

Mec-1 CLL cell line = assay: Global symmetric dimethyl arginine (SDMA) western blot, Mec-1; format: cell-based; details: Mec-1, 72 h treatment
Source text: Proteins extracted from whole-cell lysates were resolved by SDS-PAGE and transferred on nitrocellulose membrane as previously described. CpG685 oligonucleotide was obtained from the OSU Cytogenetics Core Lab. Antibodies used for immunoblots included anti-human PRMT5 (Abcam #ab109451), GAPDH (Millipore Sigma #MAB374), SDMA (Cell Signaling Technology #13222), c-Myc (Cell Signaling Technology #5605S), and β-Actin (Cell Signaling Technology #4967S). Cas9-mediated doxycycline-inducible knockout of PRMT5 utilized a targeted sgRNA (guide sequence: […], PAM: GGG).

## CON=c1nc[nH]c2c1ccn2[C@@H]1O[C@H]([C@H](O)c2ccc(Cl)c(Cl)c2)[C@@H](O)[C@H]1O.Cl [PRT382, (2 R,3 S,4 R,5 R)-2-[(R)-(3,4-dichlorophenyl)-hydroxy-methyl]-5-[(4Z)-4-methoxyimino-1H-pyrrolo[2,3-d]pyrimidin-7-yl]tetrahydrofuran-3,4-diol hydrochloride]
[1]
  clearance: low
[1]; mouse, in vivo, po, read-out: oral bioavailability (F%)
  bioavailability: 70 to 80%
Primary CLL cells; PRT382 0.001 μM
  Normalized A490: 3.307 and 4.074 and 2.806 and 1.916 and 4.967 and 4.310 and 1.926 and 2.473 and 1.595 and 1.924
Primary CLL cells; PRT382 0.010 μM
  Normalized A490: 3.718 and 3.941 and 2.668 and 1.775 and 4.704 and 4.675 and 1.969 and 2.468 and 1.587
Primary CLL cells; PRT382 0.100 μM
  Normalized A490: 3.022 and 3.734 and 2.874 and 1.799 and 4.461 and 3.405 and 1.501 and 2.532 and 1.373
Primary CLL cells; PRT382 1.000 μM
  Normalized A490: 2.691 and 3.811 and 2.801 and 1.761 and 4.387 and 2.568 and 1.496 and 2.524 and 1.293
Primary CLL cells; PRT382 10.000 μM
  Normalized A490: 1.699 and 2.509 and 3.622 and 2.474 and 1.561 and 4.249 and 2.269 and 1.136 and 2.309
Primary CLL cells; n = 12 IGHV-U patients, 72 h, with and without TLR9 stimulation (CpG)
  proliferative potential of primary CLL cells: Dose-dependent decrease in proliferation; also recorded: dose-dependent reduction in proliferative potential
[2]; 10 mg/kg oral
  peak plasma level: 12 µM
[2]; 10 mg/kg
  DNAUC: 1180 kg·ng·h/mL/mg
  blood concentration at time point 0.25: 2530
  blood concentration at time point 0.5: 3240
  blood concentration at time point 1 h: 2973
  blood concentration at time point 2 h: 1733
  blood concentration at time point 4 h: 908
  blood concentration at time point 8 h: 530
  blood concentration at time point 12 h: 46
  blood concentration at time point 24 h: 0 ng/mL
  AUC: 11700 ng·h/mL
  AUC(0-t): 11600 ng·h/mL
  Cmax: 3240 ng/mL
  MRT: 3.34 h
  Tmax: 0.5 h
  half-life: 1.87 h
[2]; 30 mg/kg oral
  peak plasma level: 32 µM
[2]; 30 mg/kg
  DNAUC: 763 kg·ng·h/mL/mg
  blood concentration at time point 0.25: 3753
  blood concentration at time point 0.5: 4560
  blood concentration at time point 1 h: 4613
  blood concentration at time point 2 h: 2990
  blood concentration at time point 4 h: 2027
  blood concentration at time point 8 h: 1350
  blood concentration at time point 12 h: 138
  blood concentration at time point 24 h: 0 ng/mL
  AUC: 22900 ng·h/mL
  AUC(0-t): 22300 ng·h/mL
  Cmax: 4670 ng/mL
  MRT: 4 h
  Tmax: 0.83 h
  half-life: 2.25 h
[2]; 100 mg/kg oral
  peak plasma level: 75 µM
[2]; 100 mg/kg
  DNAUC: 1700 kg·ng·h/mL/mg
  blood concentration at time point 0.25: 20267
  blood concentration at time point 0.5: 25300
  blood concentration at time point 1 h: 25500
  blood concentration at time point 2 h: 21367
  blood concentration at time point 4 h: 16300
  blood concentration at time point 8 h: 10253
  blood concentration at time point 12 h: 1753
  blood concentration at time point 24 h: 7 ng/mL
  AUC: 170000 ng·h/mL
  AUC(0-t): 170000 ng·h/mL
  Cmax: 25800 ng/mL
  MRT: 4.6 h
  Tmax: 0.67 h
  half-life: 1.53 h
[3]
  clearance: low
[3]; rat, in vivo, po, read-out: oral bioavailability (F%)
  bioavailability: 70 to 80%
U-2932
  IC50: 12 nM
Mec-1 CLL cell line
  lowest dose with decrease in global SDMA residues: 100 nM
